Measurements published in patent US7109174B2, “Anticonvulsant derivatives useful for preventing the development of type II diabetes mellitus and syndrome X” (Ortho-McNeil Pharmaceutical, Inc., priority 2000, dated 2006).

Tested on: ob/ob mice
Experiment: ob/ob mice second study: topiramate in food for 118 days; skin lesions, glucose, insulin, glycosylated hemoglobin, body weight
Format: in vivo
Parameters: Glycosylated hemoglobin: unit not given here
Settings: for Skin lesions Mild (mice) / Skin lesions Moderate (mice) / Skin lesions Severe (mice) / Skin lesions Total (mice): 180 mg/kg/day, N = 9
Source text: It is known that ob/ob mice when allowed to eat ad libitum, develop abnormally high blood levels of insulin (hyperinsulinemia), glucose (hyperglycemia), lesions of the skin, and a high level of glycosylated hemoglobin, all of which are hallmark signs of Type II diabetes mellitus (R. R. HENRY, Ann. Intern. Med. 1996, 124, 97–103; G. W. EDELSON, Clin. Podiatr. Med. Surg. 1998, 15, 41–48; P. R. JOHNSON, M. R. GREENWOOD, B. A. HORWITZ and J. S. STERN, Annu. Rev. Nutr. 1991, 11, 325–353). Based on this knowledge of the ob/ob mouse model, two studies were designed to determine the effect of compounds of formula (I) in these mice models.
In the second study, a uniform population of mice was divided into two groups. In one group of control mice, no topiramate was added to the food for the entire 118-day period. In a second group, topiramate was added to the food in amounts sufficient to give a daily dose of 60 mg/kg for 6 days, then a daily dose of 180 mg/kg for 112 days. During the course of the dosing period the mice were examined two-times a week for skin lesions. When skin lesions were evident, the severity was estimated based on the number and size of the lesions, and given a score ranging from mild to severe (Table 2). For four of the control mice their health deteriorated to the point that they either died or had to be euthanized. Three of these four control mice had lesions (two mice were classified as severe and one mice as mild). […] By comparison none of the nine mice treated with topiramate ever developed skin lesions (Table 2). After the 118-day period was completed, all surviving mice were sacrificed and blood was obtained and prepared for subsequent analysis of plasma glucose and insulin, and glycosylated hemoglobin. […] The body weight gain was similar in both groups throughout the study. Therfore, the beneficial effects of topiramate on the biological markers of the disease cannot be secondary to the potential beneficial effect that might arise from a loss of body eight.

CC1(C)O[C@@H]2[C@@H](CO[C@@]3(COS(N)(=O)=O)OC(C)(C)O[C@@H]23)O1 [Topiramate, 2,3:4,5-bis-O-(1-methylethylidene)-β-D-fructopyranose sulfamate]
131 ± 13 mg/dL: level of blood glucose (60 mg/kg/day 6 days then 180 mg/kg/day 112 days in food, end of study, mean±SEM, n=9, P<0.05)
none: mice that ever developed skin lesions (nine topiramate-treated mice, 118-day period)
48%: Glycosylated hemoglobin reduction with topiramate treatment (versus surviving control mice, end of 118-day study)
55.1 ± 1.3 g: body weight (day 118)
3.16±0.1: Glycosylated hemoglobin (end of 118-day study, mean±SEM, n=9, P<0.01)
42.8 ± 1.1 g: body weight (day −1, n=9)
did not differ: insulin levels versus control (end of 118-day study)
0: Skin lesions Mild (mice) (Day 41) | Skin lesions Moderate (mice) (Day 41) | Skin lesions Severe (mice) (Day 41) | Skin lesions Total (mice) (Day 41) | Skin lesions Mild (mice) (Day 53) | Skin lesions Moderate (mice) (Day 53) | Skin lesions Severe (mice) (Day 53) | Skin lesions Total (mice) (Day 53) | Skin lesions Mild (mice) (Day 61) | Skin lesions Moderate (mice) (Day 61) | Skin lesions Severe (mice) (Day 61) | Skin lesions Total (mice) (Day 61) | Skin lesions Mild (mice) (Day 70) | Skin lesions Moderate (mice) (Day 70) | Skin lesions Severe (mice) (Day 70) | Skin lesions Total (mice) (Day 70) | Skin lesions Mild (mice) (Day 83) | Skin lesions Moderate (mice) (Day 83) | Skin lesions Severe (mice) (Day 83) | Skin lesions Total (mice) (Day 83) | Skin lesions Mild (mice) (Day 96) | Skin lesions Moderate (mice) (Day 96) | Skin lesions Severe (mice) (Day 96) | Skin lesions Total (mice) (Day 96) | Skin lesions Mild (mice) (Day 97) | Skin lesions Moderate (mice) (Day 97) | Skin lesions Severe (mice) (Day 97) | Skin lesions Total (mice) (Day 97) | Skin lesions Mild (mice) (Day 105) | Skin lesions Moderate (mice) (Day 105) | Skin lesions Severe (mice) (Day 105) | Skin lesions Total (mice) (Day 105) | Skin lesions Mild (mice) (Day 118) | Skin lesions Moderate (mice) (Day 118) | Skin lesions Severe (mice) (Day 118) | Skin lesions Total (mice) (Day 118)
similar: body weight gain versus control (throughout the 118-day study)
52%: blood glucose difference between groups (topiramate-treated versus control at end of 118-day study)
